Results from article PMC5438364, “A broad-spectrum bactericidal lipopeptide with anti-biofilm properties” (Scientific Reports, 2017).
Where a SMILES comes first, the peptide text is derived from it. [ ]: non-standard residue; d: D form. The star is where a group is joined. Myristoyl = CCCCCCCCCCCCCC(=O)*; 12Ado = NCCCCCCCCCCCC(=O)O

Key:
E. coli 25922 = assay type: cell-based, Escherichia coli
Experimental: (§1) Minimal inhibitory concentration (MIC) was determined using the microdilution assay. Mid-log-phase bacteria at 5 × 10^5 CFU/ml were incubated in a 96-well plate with serial two-fold dilutions of the tested compound for 18–24 hr at 37 °C (final volume of 200 µl). O.D. at 620 nm was measured (Synergy HT, BioTek Instruments, Winooski, VT, USA), and the MIC was determined as the lowest concentration for which no increase in O.D. was detected.

[1] = Hydrophobicity by C18 RP-HPLC elution; assay type: physicochemical; details: chromatographic, RP-HPLC C18 (Vydac), flow 2 ml/min, linear acetonitrile gradient 1%/min
Experimental: OAKs were synthesized in-house (433 A Peptide Synthesizer; Applied Biosystems, Foster City, CA, USA) by the solid-phase method using 9-fluorenylmethyloxycarbonyl (Fmoc) active-ester chemistry on 4-methylbenzhydrylamine (MBHA) resin. OAKs were then deprotected and cleaved from the resin using trifluoroacetic acid:H2O (95:5) and purified to >95% chromatographic homogeneity by reverse phase high performance liquid chromatography (RP-HPLC) using C18 column (Vydac), a flow rate of 2 ml/min and a linear acetonitrile gradient of 1%/min (Alliance; Waters, Milford, MA, USA). Peaks identity was verified by mass-spectrometry (Xevo G2 Tof; Waters, Milford, MA, USA). Purified OAKs were then lyophilized and kept as dry powder at −20 °C.

E. coli ML-35p = test: Outer and cytoplasmic membrane permeabilization (nitrocefin, ONPG, EtBr); assay type: cell-based, Escherichia coli; details: ONPG and ethidium bromide (CM), 30 min, 37 °C
Experimental: Cytoplasmic membrane permeation to ethidium bromide (EtBr) was evaluated as follows: Mid-log-phase bacteria at 1 × 10^8 CFU/ml were centrifuged for 5 min at 15,000 g. Pellet was washed twice with PBS containing 0.5% glucose (pH = 7.4), suspended in the same buffer and incubated for 10 min at 37 °C with shaking. 180 µl of the bacterial suspension were mixed in a 96-well plate with 25 µl of the tested compound and EtBr (EtBr final concentration = 1 µg/ml) and fluorescence was recorded immediately (excitation: 535 nm, emission: 590 nm) for up to 30 min at 37 °C with shaking (Synergy HT, BioTek Instruments, Winooski, VT, USA).
Outer and cytoplasmic membrane permeation in Gram-negative bacteria was assessed using the engineered E. coli ML-35p by monitoring the chromogenic hydrolysis of two indicators: ortho-nitrophenyl-β-galactoside (ONPG) and nitrocefin. Mid-log-phase E. coli ML-35p were centrifuged for 5 min at 15,000 g and the supernatant was removed. Pellet was washed three times with sodium phosphate buffer (SPB; 10 mM NaH2PO4, pH = 7) and suspended in the same buffer (O.D. at 620 nm = 1). Bacteria were then 10-fold diluted into SPB containing 3% TSB. […] Hydrolysis of ONPG and nitrocefin was monitored immediately by recording the absorbance at 420 nm and 486 nm respectively, for 30 min at 37 °C with shaking (Synergy HT, BioTek Instruments, Winooski, VT, USA).

E. coli = assay type: cell-based, Escherichia coli; details: 48 h
Experimental: (§2) Staphylococci, Bacilli, Escherichia, Pseudomonas, Acinetobacter, Salmonella and Klebsiella species were grown in Luria Bertani broth (LB; 5 gr/l NaCl, 5 gr/l yeast extract, 10 gr/l tryptone). Enterococci and E. coli ML-35p were grown in Tryptic Soy Broth (TSB). Listeria and Streptococci were grown in Brain Heart Infusion (BHI). All bacteria were grown over-night at 37 °C with shaking. S. mutans 35668 plated on BHI agar for enumeration was grown for 48 hr. S. mutans UA159 was grown in 5% CO2 enriched atmosphere. Fusobacterium and Porphyromonas were grown in Wilkins-Chalgren growth medium and an anaerobic atmosphere.
Minimal inhibitory concentration (MIC) was determined using the microdilution assay. […] O.D. at 620 nm was measured (Synergy HT, BioTek Instruments, Winooski, VT, USA), and the MIC was determined as the lowest concentration for which no increase in O.D. was detected.

Pseudomonas = assay type: cell-based; details: 3 strains; microdilution, LB, 18–24 hr, 37 °C; average of at least 2 independent experiments in duplicate
Excerpt: (§3) Gram-negative bacteria tested were: ATCC strains Escherichia coli 25922, 43894, Pseudomonas aeruginosa 27853, 9027, Acinetobacter baumannii 19606, A. caloaceticus 31299, Salmonella Typhimurium 14028, Fusobacterium nucleatum 23726, Porphyromonas gingivalis 53977, clinical isolates E. coli 14182, 14384, U-16327, U-16329, P. aeruginosa 1278, Klebsiella pneumoniae 1287, K2–224, C2, A. baumannii 1279, 1280, 1281, F. nucleatum PK 1594, the engineered E. coli ML-35p and the isogenic K-12 pair AG100, AG100a (ΔacrAB). Dental related bacteria (generous gift of Prof. Doron Steinberg and Gilad Bachrach from the Hebrew University of Jerusalem) appear in bold characters.
as §2, §1

[2] = tested on: Gram-negative bacteria (GNB); assay type: cell-based; details: 24 GNB strains (seven species)
Excerpt: as §3, §2, §1

Klebsiella = assay type: cell-based
Excerpt: as §3, §2, §1

[3] = Self-assembly in solution by light scattering; assay type: physicochemical; details: for critical aggregation concentration: light scattering at 90°, 400 nm
Experimental: To assess the OAK’s self-assembly in solution, serial two-fold dilutions of the OAK (initial concentration of 200 µM) were prepared in phosphate buffered saline (PBS; 10 mM Na2HPO4, 154 mM NaCl, pH = 7.4) and incubated for 2 hr at room temperature (RT). Light scattering at a 90° angle was measured through a 1 nm slit while holding both excitation and emission at 400 nm (Spectrophotometer Fluorolog-3 FL3–22; Horiba Jobin Yvon, Edison, NJ, USA). To evaluate the disassembly of these aggregates upon bacterial exposure, an OAK solution (200 µM) was incubated (2 hr in PBS, at RT) after which, bacteria were added (10^5 CFU/ml) and the light scattering evolution of these suspensions was monitored as described above.

Enterococci = assay type: cell-based
Experimental: as §2, §1

Listeria = assay type: cell-based
Experimental: as §2, §1

Streptococci = assay type: cell-based
Experimental: as §2, §1

Staphylococci = assay type: cell-based
Experimental: as §2, §1

## CCCCCCCCCCCCCC(=O)N[C@@H](CCCCN)C(=O)N[C@@H](CCCCN)C(=O)NCCCCCCCCCCCC(=O)N[C@@H](CCCCN)C(N)=O [C14KKc12K] (Myristoyl-KK[12Ado]K-NH2)
E. coli 25922
  MIC: 6 µM
[1]
  H, hydrophobicity, defined as % acetonitrile eluent in C18 HPLC column: 54%
E. coli ML-35p
  concentration (MIC value) at which both OM and CM were permeabilized: 3 µM
E. coli
  MIC E.c.: 3.12 µM
Pseudomonas
  MIC range: 6.25 to 12.5 µM
[2]
  MIC50: 6 µM
Klebsiella
  MIC range: 3.12 to 12.5 µM
[3]; OAK 200 µM in PBS, 2 hr RT, then 10^5 CFU/ml S. aureus or E. coli, compared with C12KKc12K
  disaggregation in presence of bacteria (light scattering): greater tendency to disaggregate in presence of bacteria
[3]; PBS pH 7.4, 2 hr at RT
  critical aggregation concentration: 23 ± 3 µM
[3]; PBS pH 7.4, 2 hr at RT, two-fold dilutions from 200 µM
  concentration of sharp divergence of light scattering pattern (higher amplitudes): ~ 20 µM
[3]; supernatant of centrifuged saliva
  critical aggregation concentration: 8 ± 1 µM
Enterococci
  MIC range: 3.12 to 6.25 µM
Listeria
  MIC range: 3.12 µM
Streptococci
  MIC range: 0.78 to 3.12 µM
Staphylococci
  MIC range: 1.56 to 3.12 µM
